From PMC11114221, “A pattern recognition artificial olfactory system based on human olfactory receptors and organic synaptic devices” (Science Advances, 2024)

What was measured:
Test in all cases: tryptophan fluorescence quenching
Type in all cases: binding
Conditions in all cases: receptor nanodiscs 500 nM; 20 mM Hepes, 100 mM NaCl, pH 8.0
hOR51E1 = molecular target: T1, hOR51E1 (Homo sapiens, UniProt Q8TCB6)
T1 construct: gene OR51E1; E. coli SuptoxR (Rosetta 2 (DE3) with RraA); ~38 kDa
T1 sequence (Q8TCB6 1-318): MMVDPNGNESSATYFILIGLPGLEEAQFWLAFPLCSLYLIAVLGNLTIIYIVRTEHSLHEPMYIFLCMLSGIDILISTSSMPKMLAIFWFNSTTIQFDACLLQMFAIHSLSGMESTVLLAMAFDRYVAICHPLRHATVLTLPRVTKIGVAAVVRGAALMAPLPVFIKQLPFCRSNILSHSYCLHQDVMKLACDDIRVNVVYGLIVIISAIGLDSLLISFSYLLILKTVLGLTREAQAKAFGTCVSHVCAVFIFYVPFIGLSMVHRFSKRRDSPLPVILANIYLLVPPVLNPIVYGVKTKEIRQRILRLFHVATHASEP

hOR52D1 = molecular target: T2, hOR52D1 (Homo sapiens, UniProt Q9H346)
T2 construct: gene OR52D1; E. coli SuptoxR (Rosetta 2 (DE3) with RraA); ~38 kDa
T2 sequence (Q9H346 1-318): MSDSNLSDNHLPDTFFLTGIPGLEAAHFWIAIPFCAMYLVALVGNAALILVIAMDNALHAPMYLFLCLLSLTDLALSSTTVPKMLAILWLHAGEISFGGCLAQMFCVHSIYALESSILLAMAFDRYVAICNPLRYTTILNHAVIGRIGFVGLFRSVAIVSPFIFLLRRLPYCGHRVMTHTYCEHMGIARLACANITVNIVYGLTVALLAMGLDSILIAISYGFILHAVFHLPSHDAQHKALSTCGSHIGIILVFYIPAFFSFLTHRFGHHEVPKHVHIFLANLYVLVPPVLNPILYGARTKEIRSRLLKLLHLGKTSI

hOR51E2 = molecular target: T3, hOR51E2 (Homo sapiens, UniProt Q9H255)
T3 construct: gene OR51E2; E. coli SuptoxR (Rosetta 2 (DE3) with RraA); ~38 kDa
T3 sequence (Q9H255 1-320): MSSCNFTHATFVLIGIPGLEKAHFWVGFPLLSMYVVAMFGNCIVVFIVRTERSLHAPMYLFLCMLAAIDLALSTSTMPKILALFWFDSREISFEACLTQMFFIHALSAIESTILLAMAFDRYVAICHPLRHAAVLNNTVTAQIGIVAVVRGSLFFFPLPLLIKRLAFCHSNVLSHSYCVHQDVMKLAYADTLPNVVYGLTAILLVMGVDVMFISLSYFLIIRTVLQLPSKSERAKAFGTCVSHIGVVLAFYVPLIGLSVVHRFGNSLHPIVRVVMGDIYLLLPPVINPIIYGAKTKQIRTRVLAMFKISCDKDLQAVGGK

Structure (SMILES)	∆F/F0 (%) (hOR51E1)	∆F/F0 (%) (hOR52D1)	∆F/F0 (%) (hOR51E2)
CCCC(=O)O [BA, butyric acid]	each hOR ND displayed distinct binding affinities toward the SCFAs	each hOR ND displayed distinct binding affinities toward the SCFAs	each hOR ND displayed distinct binding affinities toward the SCFAs
CCCCCC(=O)O [HA, hexanoic acid]	each hOR ND displayed distinct binding affinities toward the SCFAs	each hOR ND displayed distinct binding affinities toward the SCFAs	each hOR ND displayed distinct binding affinities toward the SCFAs
CCC(=O)O [PA, propionic acid]	each hOR ND displayed distinct binding affinities toward the SCFAs	each hOR ND displayed distinct binding affinities toward the SCFAs	each hOR ND displayed distinct binding affinities toward the SCFAs
CCCCC(=O)O [VA, valeric acid]	each hOR ND displayed distinct binding affinities toward the SCFAs	each hOR ND displayed distinct binding affinities toward the SCFAs	each hOR ND displayed distinct binding affinities toward the SCFAs
